Data on 1 compound can be found in PMC10119282, “Molecular characterization of AIFM2/FSP1 inhibition by iFSP1-like molecules” (Cell Death & Disease, 2023).

Data set [1] relates to Pfa1 Gpx4−/− overexpressing hFSP1 F360A. The data set is described as follows: Cell viability (Alamar blue), hFSP1 F360A. Format: cell-based, murine. As for the experimental part:
(§1) Cell Lines. 4-hydroxytamoxifen (TAM)-inducible Gpx4^−/− murine immortalized fibroblasts (Pfa1) were reported previously. These cells harbor two loxP-flanked Gpx4 alleles and stably express TAM inducible Cre recombinase allowing the genetic deletion of Gpx4 at will. For all experiments using Gpx4^−/− the well were treated with 4-hydroxitamoxifen (TAM) 1 µM. All cells were cultured with were cultured in DMEM-high glucose (4.5 g glucose/L) with 10% fetal bovine serum (FBS), Glutamax, and 1% penicillin/streptomycin (Gibco, Thermo Fischer) at 37 °C with 5% CO2 and verified to be negative for mycoplasma.
(§2) Cell viability assays. Alamar Blue method: Cells were seeded on 96-well plates (2000 cells per well) and treated with the compounds RSL3, iFSP1 and (liproxstatin-1) after plating. Cell viability was assessed 48 h (unless stated otherwise) after treatment using Alamar Blue as an indicator of viable cells. Alamar blue solution was made by dissolving of 1 g resazurin sodium salt (Thermo Fischer) in 200 mL sterile PBS and sterile filtrated through a 0.22 µm filter. Stock solutions were stored at 4 °C. The working solution was made freshly by adding 200 µL of the stock solution to 25 mL growth media. After 2–4 h incubation time, viability was estimated by measuring the fluorescence using a 540/35 excitation filter and a 590/20 emission on a Spark® microplate reader (Tecan, Zürich, Switzerland).

The test system of data set [2] is Pfa1 Gpx4−/− overexpressing hFSP1 Y296A. The data set is described as follows: Cell viability (Alamar blue), hFSP1 Y296A. The class given is cell-based, murine. The method, then:
as §1, §2

Data set [3] concerns Pfa1 Gpx4−/− overexpressing hFSP1 Y296A/F360A. The data set is described as follows: Cell viability (Alamar blue), hFSP1 Y296A/F360A. The class given is cell-based, murine. The method, then:
as §1, §2
(In general: Alamar Blue is a resazurin reagent that responds to reducing activity.)

Data set [4] has as its system Pfa1 Gpx4−/− overexpressing chimeric FSP1 C1. In words: Cell viability (Alamar blue), chimeric construct C1. Format: cell-based, murine. The settings on record: Mus musculus; chimeric construct C1 (human residues 1 to 59); x axis iFSP1 (μM); read-out: IC50 (dose-response toxicity). The method, then: as §1
as §2, with “Switzerland). […]” for “Switzerland).”

Data set [5] deals with Pfa1 Gpx4−/− overexpressing chimeric FSP1 C6. The data set is described as follows: Cell viability (Alamar blue), chimeric construct C6. The class given is cell-based, murine. The method, then: as §1
as §2, with “Switzerland). […]” for “Switzerland).”

For data set [6], the system named is Pfa1 Gpx4−/− cells overexpressing murine FSP1 (mFSP1). The data set is described as follows: Cell viability (Alamar blue), dose-response toxicity in Gpx4-knockout cells expressing mFSP1. Format: cell-based. As for the experimental part:
as §1
as §2, with “Switzerland). […]” for “Switzerland).”

Data set [7] has as its target T1, recombinant purified hFSP1 F360L mutant (Homo sapiens, UniProt Q9BRQ8, F360L).
T1 construct: HisSUMO (cleaved yes); made in house; host or cells: E. coli BL21
In words: NADH consumption assay (340 nm), FSP1 enzyme activity and inhibition. Format: biochemical. Conditions: iFSP1 2 µM; menadione as substrate. As for the experimental part: (§3) FSP1 (human isoform 1, UniProt Q9BRQ8-1) WT (hFSP1 WT) and F360L (hFSP1 F360L) were expressed in E.coli BL21 as HisSUMO fusion protein. Cells were grown in lysogeny broth medium at 18 °C and induced with 0.5 mM isopropyl-β-thiogalactoside at a cell density A600 of 0.6. Cells were collected after overnight expression by centrifugation, resuspended in lysis buffer ([…], 50 mM Tris-HCl pH 8, 1 mM TCEP, 20 mM imidazole, protease inhibitor, DNase) and lysed by sonication. Cell debris was removed by centrifugation (30,000 × g) at 4 °C for 30 min, after which an IMAC purification was performed. […] IMAC eluates were analysed by SDS PAGE and concentrated to 15 mL (hFSP1 WT) and 5 mL (hFSP1 F360L), respectively. […] Pure fractions were pooled (C12—D11 for hFSP1 WT and C7—D4 for hFSP1 F360L), analysed by SDS-PAGE (Supplementary Fig. 4) and concentrated to 5.8 mL at 285.9 µM (hFSP1 WT) and 1.2 mL at 269.5 µM (FSP1 F360L), flash frozen in liquid N2 and stored at −80 °C.
(§4) Enzyme reactions were performed in TBS buffer (50 mM TRIS pH 8, 250 mM NaCl) on a 96-well plate in a 100 µL final volume. […] Absorbance (340 nm) was recorded every 30 s on a Spark® microplate reader (Tecan, Zürich, Switzerland) in order to determine NADH consumption. […]

Data set [8] addresses T2, recombinant purified hFSP1 WT (Homo sapiens, UniProt Q9BRQ8).
T2 construct: HisSUMO (cleaved yes); made in house; host or cells: E. coli BL21
The description is as above. Format: biochemical. Conditions: iFSP1 2 µM; menadione as substrate. The method, then: as §3, §4

The next data set is described as follows: Water solubility. The class given is physicochemical.
Where [9] appears, read: Mus musculus, x axis iFSP1 (μM), read-out: IC50 (dose-response toxicity).

For orientation: IC50 means the concentration that gives 50% inhibition.

T2 sequence (Q9BRQ8 whole entry): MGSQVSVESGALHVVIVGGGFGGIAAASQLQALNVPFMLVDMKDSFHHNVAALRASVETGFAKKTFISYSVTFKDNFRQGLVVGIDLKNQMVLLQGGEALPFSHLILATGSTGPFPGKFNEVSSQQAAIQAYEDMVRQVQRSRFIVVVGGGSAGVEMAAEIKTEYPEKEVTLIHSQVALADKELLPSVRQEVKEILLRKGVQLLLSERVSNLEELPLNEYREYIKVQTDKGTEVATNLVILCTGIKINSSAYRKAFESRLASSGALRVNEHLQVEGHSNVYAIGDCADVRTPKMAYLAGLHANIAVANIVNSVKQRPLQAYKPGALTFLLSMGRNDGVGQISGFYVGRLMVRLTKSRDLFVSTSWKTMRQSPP
T1 sequence (Q9BRQ8 whole entry F360L): as the sequence (Q9BRQ8 whole entry) above, with F360L counted along it

As for `Cc1ccc(-c2c(C#N)c(N)n3c(nc4ccccc43)c2C#N)cc1` [iFSP1], the “inhibitor activity (ferroptosis induction)” value in data set [1], in data set [2] and in data set [3] was “abolishes the inhibitor activity” each time. Besides, the IC50 is 5.62 µM in [1] (setting [9]); 5.62 µM in data set [2] (setting [9]); 5.62 µM in [3] (setting [9]); 9.41 µM in data set [4]; 1.64 µM in data set [5] (Mus musculus, chimeric construct C6 (human residues 301 till 373), x axis iFSP1 (μM), read-out: IC50 (dose-response toxicity)); 7.48 µM in data set [6] (Mus musculus, mFSP1 WT, Δ curve (no Lip-1), Alamar blue, x axis iFSP1 (μM)). Besides, the values for the induction of ferroptosis entry in data set [5] (chimera C6) and in [6] (murine isoform) were “underwent ferroptosis upon iFSP1 treatment” and “could only induce ferroptosis in the cell line expressing the human isoform”, respectively. The “inhibition of enzyme activity (NADH consumption)” value was “just the activity of the WT protein was inhibited by iFSP1” in [7] and “inhibited” in data set [8]. Moreover, the water solubility result in the data set “Water solubility” was “poor”.
